Reference: PubChem BioAssay (NCI)
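Method: 48-hour compound exposure of cells in 96-well plates, five concentrations, linear interpolation of endpoints. TGI marks complete inhibition of growth.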

How the values were obtained:
Assay in all cases: NCI tumour cell line growth inhibition, 48 h
EKVX NSCLC = tested on: EKVX NSCLC
HOP-92 NSCLC = tested on: HOP-92 NSCLC
SF-539 CNS = tested on: SF-539 CNS
COLO 205 colon = tested on: COLO 205 colon
A549 NSCLC = tested on: A549 NSCLC
U251 CNS = tested on: U251 CNS
M14 melanoma = tested on: M14 melanoma
UACC-257 melanoma = tested on: UACC-257 melanoma
NCI-H522 lung = tested on: NCI-H522 lung
K-562 leukemia = tested on: K-562 leukemia
OVCAR-8 ovarian = tested on: OVCAR-8 ovarian
OVCAR-3 ovarian = tested on: OVCAR-3 ovarian
NCI-H460 lung = tested on: NCI-H460 lung
HOP-62 NSCLC = tested on: HOP-62 NSCLC
MOLT-4 leukemia = tested on: MOLT-4 leukemia
SNB-78 CNS = tested on: SNB-78 CNS
SK-MEL-5 melanoma = tested on: SK-MEL-5 melanoma
HCC-2998 colon = tested on: HCC-2998 colon
SNB-19 CNS = tested on: SNB-19 CNS
DLD-1 colon = tested on: DLD-1 colon
TK-10 renal = tested on: TK-10 renal
UO-31 renal = tested on: UO-31 renal
MALME-3M melanoma = tested on: MALME-3M melanoma
IGROV1 ovarian = tested on: IGROV1 ovarian
OVCAR-5 ovarian = tested on: OVCAR-5 ovarian
CCRF-CEM leukemia = tested on: CCRF-CEM leukemia
HL-60(TB) leukemia = tested on: HL-60(TB) leukemia
M19-MEL melanoma = tested on: M19-MEL melanoma
RPMI-8226 leukemia = tested on: RPMI-8226 leukemia
SN12C renal = tested on: SN12C renal
SW-620 colon = tested on: SW-620 colon
SF-268 CNS = tested on: SF-268 CNS
DMS 114 small cell lung = tested on: DMS 114 small cell lung
LXFL 529 NSCLC = tested on: LXFL 529 NSCLC
SK-OV-3 ovarian = tested on: SK-OV-3 ovarian
UACC-62 melanoma = tested on: UACC-62 melanoma
KM20L2 colon = tested on: KM20L2 colon
KM12 colon = tested on: KM12 colon
NCI-H23 lung = tested on: NCI-H23 lung
HCT-15 colon = tested on: HCT-15 colon
OVCAR-4 ovarian = tested on: OVCAR-4 ovarian
ACHN renal = tested on: ACHN renal
HCT-116 colon = tested on: HCT-116 colon
786-0 renal = tested on: 786-0 renal
NCI-H226 lung = tested on: NCI-H226 lung
CAKI-1 renal = tested on: CAKI-1 renal
A498 renal = tested on: A498 renal
LOX IMVI melanoma = tested on: LOX IMVI melanoma
HT29 colon = tested on: HT29 colon
SF-295 CNS = tested on: SF-295 CNS
DMS 273 small cell lung = tested on: DMS 273 small cell lung
HOP-18 NSCLC = tested on: HOP-18 NSCLC
SR leukemia = tested on: SR leukemia

Q: How did the TGI (EKVX NSCLC) turn out when Nc1n[n+](-c2ccccc2)no1 was run?
A: The TGI was greater than 100 µM.

Q: What about the TGI (HOP-92 NSCLC) of the same compound?
A: Its TGI is 92.9 µM.

Q: And the TGI (SF-539 CNS)?
A: The TGI was greater than 100 µM.

Q: And the TGI (COLO 205 colon)?
A: The TGI was greater than 100 µM.

Q: What about the TGI (A549 NSCLC) of the same compound?
A: Its TGI is greater than 100 µM.

Q: What about the TGI (U251 CNS) of the same compound?
A: The TGI was greater than 100 µM.

Q: What about the TGI (M14 melanoma) of the same compound?
A: Its TGI is greater than 100 µM.

Q: What about the TGI (UACC-257 melanoma) of the same compound?
A: The TGI was greater than 100 µM.

Q: What about the TGI (NCI-H522 lung) of the same compound?
A: The TGI was greater than 100 µM.

Q: And the TGI (K-562 leukemia)?
A: The TGI was greater than 100 µM.

Q: What about the TGI (OVCAR-8 ovarian) of the same compound?
A: Its TGI is greater than 100 µM.

Q: What about the TGI (OVCAR-3 ovarian) of the same compound?
A: The TGI was greater than 100 µM.

Q: And the TGI (NCI-H460 lung)?
A: Its TGI is greater than 100 µM.

Q: What about the TGI (HOP-62 NSCLC) of the same compound?
A: The TGI was greater than 100 µM.

Q: And the TGI (MOLT-4 leukemia)?
A: The TGI was greater than 100 µM.

Q: What about the TGI (SNB-78 CNS) of the same compound?
A: The TGI was greater than 100 µM.

Q: And the TGI (SK-MEL-5 melanoma)?
A: The TGI was greater than 100 µM.

Q: And the TGI (HCC-2998 colon)?
A: The TGI was greater than 100 µM.

Q: What about the TGI (SNB-19 CNS) of the same compound?
A: Its TGI is greater than 100 µM.

Q: What about the TGI (DLD-1 colon) of the same compound?
A: The TGI was greater than 100 µM.

Q: What about the TGI (TK-10 renal) of the same compound?
A: Its TGI is greater than 100 µM.

Q: What about the TGI (UO-31 renal) of the same compound?
A: The TGI was greater than 100 µM.

Q: What about the TGI (MALME-3M melanoma) of the same compound?
A: The TGI was greater than 100 µM.

Q: And the TGI (IGROV1 ovarian)?
A: Its TGI is greater than 100 µM.

Q: And the TGI (OVCAR-5 ovarian)?
A: Its TGI is greater than 100 µM.

Q: And the TGI (CCRF-CEM leukemia)?
A: The TGI was greater than 100 µM.

Q: What about the TGI (HL-60(TB) leukemia) of the same compound?
A: Its TGI is greater than 100 µM.

Q: What about the TGI (M19-MEL melanoma) of the same compound?
A: Its TGI is greater than 100 µM.

Q: What about the TGI (RPMI-8226 leukemia) of the same compound?
A: Its TGI is greater than 100 µM.

Q: And the TGI (SN12C renal)?
A: Its TGI is greater than 100 µM.

Q: And the TGI (SW-620 colon)?
A: The TGI was greater than 100 µM.

Q: And the TGI (SF-268 CNS)?
A: The TGI was greater than 100 µM.

Q: What about the TGI (DMS 114 small cell lung) of the same compound?
A: Its TGI is 89.8 µM.

Q: What about the TGI (LXFL 529 NSCLC) of the same compound?
A: Its TGI is greater than 100 µM.

Q: What about the TGI (SK-OV-3 ovarian) of the same compound?
A: The TGI was greater than 100 µM.

Q: What about the TGI (UACC-62 melanoma) of the same compound?
A: The TGI was 89.6 µM.

Q: What about the TGI (KM20L2 colon) of the same compound?
A: The TGI was greater than 100 µM.

Q: And the TGI (KM12 colon)?
A: Its TGI is greater than 100 µM.

Q: What about the TGI (NCI-H23 lung) of the same compound?
A: Its TGI is greater than 100 µM.

Q: What about the TGI (HCT-15 colon) of the same compound?
A: The TGI was greater than 100 µM.

Q: And the TGI (OVCAR-4 ovarian)?
A: The TGI was greater than 100 µM.

Q: What about the TGI (ACHN renal) of the same compound?
A: Its TGI is greater than 100 µM.

Q: What about the TGI (HCT-116 colon) of the same compound?
A: The TGI was greater than 100 µM.

Q: And the TGI (786-0 renal)?
A: The TGI was greater than 100 µM.

Q: What about the TGI (NCI-H226 lung) of the same compound?
A: The TGI was greater than 100 µM.

Q: And the TGI (CAKI-1 renal)?
A: The TGI was greater than 100 µM.

Q: And the TGI (A498 renal)?
A: The TGI was greater than 100 µM.

Q: And the TGI (LOX IMVI melanoma)?
A: Its TGI is greater than 100 µM.

Q: What about the TGI (HT29 colon) of the same compound?
A: Its TGI is greater than 100 µM.

Q: What about the TGI (SF-295 CNS) of the same compound?
A: The TGI was greater than 100 µM.

Q: And the TGI (DMS 273 small cell lung)?
A: Its TGI is greater than 100 µM.

Q: With Cc1ccc2c(ccc(/C=C\c3cc(C)c4cccnc4c3O)[n+]2C)c1 as the compound, how does the TGI (EKVX NSCLC) read?
A: Its TGI is 75 µM.

Q: What about the TGI (SF-539 CNS) of the same compound?
A: The TGI was 25.1 µM.

Q: And the TGI (COLO 205 colon)?
A: Its TGI is 71.9 µM.

Q: And the TGI (A549 NSCLC)?
A: The TGI was 40.9 µM.

Q: What about the TGI (U251 CNS) of the same compound?
A: The TGI was 68.7 µM.

Q: What about the TGI (M14 melanoma) of the same compound?
A: The TGI was 25.5 µM.

Q: And the TGI (UACC-257 melanoma)?
A: Its TGI is 28.4 µM.

Q: And the TGI (NCI-H522 lung)?
A: The TGI was 27.8 µM.

Q: What about the TGI (K-562 leukemia) of the same compound?
A: Its TGI is greater than 100 µM.

Q: And the TGI (OVCAR-8 ovarian)?
A: The TGI was 24.1 µM.

Q: What about the TGI (OVCAR-3 ovarian) of the same compound?
A: The TGI was 12.9 µM.

Q: What about the TGI (NCI-H460 lung) of the same compound?
A: Its TGI is 18 µM.

Q: What about the TGI (HOP-62 NSCLC) of the same compound?
A: Its TGI is 27.6 µM.

Q: What about the TGI (MOLT-4 leukemia) of the same compound?
A: Its TGI is 28.4 µM.

Q: And the TGI (SK-MEL-5 melanoma)?
A: Its TGI is 2.98 µM.

Q: And the TGI (HOP-18 NSCLC)?
A: The TGI was 9.28 µM.

Q: And the TGI (HCC-2998 colon)?
A: The TGI was 11.6 µM.

Q: And the TGI (SNB-19 CNS)?
A: Its TGI is 35 µM.

Q: What about the TGI (DLD-1 colon) of the same compound?
A: Its TGI is 4.36 µM.

Q: What about the TGI (UO-31 renal) of the same compound?
A: Its TGI is 66 µM.

Q: And the TGI (MALME-3M melanoma)?
A: Its TGI is 25.1 µM.

Q: And the TGI (IGROV1 ovarian)?
A: Its TGI is greater than 100 µM.

Q: What about the TGI (OVCAR-5 ovarian) of the same compound?
A: The TGI was greater than 100 µM.

Q: What about the TGI (CCRF-CEM leukemia) of the same compound?
A: Its TGI is 26 µM.

Q: And the TGI (HL-60(TB) leukemia)?
A: Its TGI is 19.7 µM.

Q: And the TGI (RPMI-8226 leukemia)?
A: The TGI was 21.6 µM.

Q: And the TGI (SN12C renal)?
A: Its TGI is 24.7 µM.

Q: And the TGI (SW-620 colon)?
A: The TGI was 30.1 µM.

Q: And the TGI (SF-268 CNS)?
A: Its TGI is 47.6 µM.

Q: And the TGI (DMS 114 small cell lung)?
A: The TGI was 7.54 µM.

Q: And the TGI (LXFL 529 NSCLC)?
A: The TGI was 18.9 µM.

Q: What about the TGI (UACC-62 melanoma) of the same compound?
A: The TGI was 15 µM.

Q: And the TGI (KM20L2 colon)?
A: The TGI was 33.3 µM.

Q: What about the TGI (KM12 colon) of the same compound?
A: Its TGI is 31.6 µM.

Q: What about the TGI (NCI-H23 lung) of the same compound?
A: Its TGI is 53.4 µM.

Q: What about the TGI (OVCAR-4 ovarian) of the same compound?
A: Its TGI is 39 µM.

Q: What about the TGI (ACHN renal) of the same compound?
A: Its TGI is 20.4 µM.

Q: What about the TGI (HCT-116 colon) of the same compound?
A: Its TGI is 19.6 µM.

Q: And the TGI (786-0 renal)?
A: The TGI was greater than 100 µM.

Q: What about the TGI (NCI-H226 lung) of the same compound?
A: The TGI was 3.98 µM.

Q: And the TGI (CAKI-1 renal)?
A: The TGI was 25.5 µM.

Q: What about the TGI (A498 renal) of the same compound?
A: Its TGI is 33.9 µM.

Q: And the TGI (SR leukemia)?
A: The TGI was 25.4 µM.

Q: And the TGI (LOX IMVI melanoma)?
A: The TGI was 56.2 µM.

Q: And the TGI (SF-295 CNS)?
A: Its TGI is 26.9 µM.

Q: What about the TGI (DMS 273 small cell lung) of the same compound?
A: Its TGI is 21.4 µM.
